Results as given in patent US11091478B2 (Fochon Pharmaceuticals, Ltd., priority 2017, dated 2021).

Key:
[1] = tested on: DOHH2 cells; assay: Cell proliferation assay (MTS), DOHH2 cells, 120 h; format: cell-based; conditions: Homo sapiens, DOHH-2, 120 h
Method in brief: (§1)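 Cells in RPMI-1640 with 10% FBS were seeded at 5000/well, left overnight at 37° C., 5% CO2, then exposed to compound at 10000 down to 1.5 nM (nine concentrations) for 72 h (RS4;11) or 120 h (DOHH2). Viability was read by MTS, 2 h, absorbance at 490/650 nm; IC50 calculated.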

[2] = tested on: RS4;11 cells; assay: Cell proliferation assay (MTS), RS4;11 cells, 72 h; format: cell-based; conditions: Homo sapiens, RS4-11, 72 h
Method in brief: as §1

IC50 [2] [nM]	SMILES	IC50 [1] [nM]
50	CC1(C)CCC(CN2CCN(c3ccc(C(=O)NS(=O)(=O)c4cc5c(c([N+](=O)[O-])c4)N[C@@H](CN4CCCCC4)CO5)c(Oc4cnc5[nH]ccc5c4)c3)CC2)=C(c2ccc(Cl)cc2)C1 [Example 2-89, (S)-2-((1H-pyrrolo[2,3-b]pyridin-5-yl)oxy)-4-(4-((4′-chloro-5,5-dimethyl-3,4,5,6-tetra-hydro-[1,1′-biphenyl]-2-yl)methyl)piperazin-1-yl)-N-((5-nitro-3-(piperidin-1-ylmethyl)-3,4-dihydro-2H-benzo[b][1,4]oxazin-7-yl)sulfonyl)benzamide]	55
5	CC(=O)N1CCN(C[C@@H]2COc3cc(S(=O)(=O)NC(=O)c4ccc(N5CCN(CC6=C(c7ccc(Cl)cc7)CC(C)(C)CC6)CC5)cc4Oc4cnc5[nH]ccc5c4)cc([N+](=O)[O-])c3N2)CC1 [Example 2-91, (R)-2-((1H-pyrrolo[2,3-b]pyridin-5-yl)oxy)-N-((3-((4-acetylpiperazin-1-yl)methyl)-5-nitro-3,4-dihydro-2H-benzo[b][1,4]oxazin-7-yl)sulfonyl)-4-(4-((4′-chloro-5,5-dimethyl-3,4,5,6-tetrahydro-[1,1′-biphenyl]-2-yl)meth-yl)piperazin-1-yl)benzamide]	49
5	CCC(=O)N1CCN(C[C@@H]2COc3cc(S(=O)(=O)NC(=O)c4ccc(N5CCN(CC6=C(c7ccc(Cl)cc7)CC(C)(C)CC6)CC5)cc4Oc4cnc5[nH]ccc5c4)cc([N+](=O)[O-])c3N2)CC1 [Example 2-92, (R)-2-((1H-pyrrolo[2,3-b]pyridin-5-yl)oxy)-4-(4-((4′-chloro-5,5-dimethyl-3,4,5,6-tetra-hydro-[1,1′-biphenyl]-2-yl)methyl)piperazin-1-yl)-N-((5-nitro-3-((4-propionylpiperazin-1-yl)methyl)-3,4-dihydro-2H-benzo[b] [1,4]oxazin-7-yl)sulfonyl)benzamide]	79
40	COC(=O)N1CCN(C[C@@H]2COc3cc(S(=O)(=O)NC(=O)c4ccc(N5CCN(CC6=C(c7ccc(Cl)cc7)CC(C)(C)CC6)CC5)cc4Oc4cnc5[nH]ccc5c4)cc([N+](=O)[O-])c3N2)CC1 [Example 2-93, methyl (R)-4-((7-(N-(2-((1H-pyrrolo[2,3-b]pyridin-5-yl)oxy)-4-(4-((4′-chloro-5,5-dimethyl-3,4,5,6-tetrahydro-[1,1′-biphenyl]-2-yl)methyl)piperazin-1-yl)benzoyl)sulfamoyl)-5-nitro-3,4-dihydro-2H-benzo[b][1,4]oxazin-3-yl)methyl)piperazine-1-carboxylate]	16
20	CC1(C)CCC(CN2CCN(c3ccc(C(=O)NS(=O)(=O)c4cc5c(c([N+](=O)[O-])c4)N[C@H](CN4CCN(C(=O)C6CC6)CC4)CO5)c(Oc4cnc5[nH]ccc5c4)c3)CC2)=C(c2ccc(Cl)cc2)C1 [Example 2-94, (R)-2-((1H-pyrrolo[2,3-b]pyridin-5-yl)oxy)-4-(4-((4′-chloro-5,5-dimethyl-3,4,5,6-tetra-hydro-[1,1′-biphenyl]-2-yl)methyl)piperazin-1-yl)-N-((3-((4-(cyclopropanecarbonyl)piperazin-1-yl)methyl)-5-nitro-3,4-dihydro-2H-benzo[b][1,4]oxazin-7-yl)sulfonyl)benza-mide]	1
72	CC(=O)N1CCN(C[C@H]2COc3cc(S(=O)(=O)NC(=O)c4ccc(N5CCN(CC6=C(c7ccc(Cl)cc7)CC(C)(C)CC6)CC5)cc4Oc4cnc5[nH]ccc5c4)cc([N+](=O)[O-])c3N2)CC1 [Example 2-96, (S)-2-((1H-pyrrolo[2,3-b]pyridin-5-yl)oxy)-N-((3-((4-acetylpiperazin-1-yl)methyl)-5-nitro-3,4-dihydro-2H-benzo[b][1,4]oxazin-7-yl)sulfonyl)-4-(4-((4′-chloro-5,5-dimethyl-3,4,5,6-tetrahydro-[1,1′-biphenyl]-2-yl)meth-yl)piperazin-1-yl)benzamide]	85
23	CCC(=O)N1CCN(C[C@H]2COc3cc(S(=O)(=O)NC(=O)c4ccc(N5CCN(CC6=C(c7ccc(Cl)cc7)CC(C)(C)CC6)CC5)cc4Oc4cnc5[nH]ccc5c4)cc([N+](=O)[O-])c3N2)CC1 [Example 2-97, (S)-2-((1H-pyrrolo[2,3-b]pyridin-5-yl)oxy)-4-(4-((4′-chloro-5,5-dimethyl-3,4,5,6-tetra-hydro-[1,1′-biphenyl]-2-yl)methyl)piperazin-1-yl)-N-((5-nitro-3-((4-propionylpiperazin-1-yl)methyl)-3,4-dihydro-2H-benzo[b] [1,4]oxazin-7-yl)sulfonyl)benzamide]	23
17	COC(=O)N1CCN(C[C@H]2COc3cc(S(=O)(=O)NC(=O)c4ccc(N5CCN(CC6=C(c7ccc(Cl)cc7)CC(C)(C)CC6)CC5)cc4Oc4cnc5[nH]ccc5c4)cc([N+](=O)[O-])c3N2)CC1 [Example 2-98, methyl (S)-4-((7-(N-(2-((1H-pyrrolo[2,3-b]pyridin-5-y)oxy)-4-(4-((4′-chloro-5,5-dimethyl-3,4,5,6-tetrahydro[1,1′-biphenyl]-2-yl)methyl)piperazin-1-yl)benzoyl)sulfamoyl)-5-nitro-3,4-dihydro-2H-benzo[b][1,4]oxazin-3-yl)methyl)piperazine-1-carboxylate]	38
8	CC1(C)CCC(CN2CCN(c3ccc(C(=O)NS(=O)(=O)c4cc5c(c([N+](=O)[O-])c4)N[C@@H](CN4CCN(C(=O)C6CC6)CC4)CO5)c(Oc4cnc5[nH]ccc5c4)c3)CC2)=C(c2ccc(Cl)cc2)C1 [Example 2-99, (S)-2-((1H-pyrrolo[2,3-b]pyridin-5-yl)oxy)-4-(4-((4′-chloro-5,5-dimethyl-3,4,5,6-tetra-hydro-[1,1′-biphenyl]-2-yl)methyl)piperazin-1-yl)-N-((3-((4-(cyclopropanecarbonyl)piperazin-1-yl)methyl)-5-nitro-3,4-dihydro-2H-benzo[b][1,4]oxazin-7-yl)sulfonyl)benza-mide]	20

More lines, now with the values behind:

SMILES	IC50 [2] [nM]	IC50 [1] [nM]
CC1(C)CCC(CN2CCN(c3ccc(C(=O)NS(=O)(=O)c4cc5c(c([N+](=O)[O-])c4)N[C@@H](CN4C[C@H]6C[C@@H]4CO6)CO5)c(Oc4cnc5[nH]ccc5c4)c3)CC2)=C(c2ccc(Cl)cc2)C1 [Example 2-88, 2-((1H-pyrrolo[2,3-b]pyridin-5-yl)oxy)-N-(((S)-3-(((1R,4R)-2-oxa-5-azabicyclo[2.2.1]heptan-5-yl)methyl)-5-nitro-3,4-dihydro-2H-benzo[b][1,4]oxazin-7-yl)sulfonyl)-4-(4-((4′-chloro-5,5-dimethyl-3,4,5,6-tetrahydro-[1,1′-biphenyl]-2-yl)methyl)piperazin-1-yl) benzamide]	2	14
CC1(C)CCC(CN2CCN(c3ccc(C(=O)NS(=O)(=O)c4cc5c(c([N+](=O)[O-])c4)N[C@H](CN4CCN(S(C)(=O)=O)CC4)CO5)c(Oc4cnc5[nH]ccc5c4)c3)CC2)=C(c2ccc(Cl)cc2)C1 [Example 2-90, (R)-2-((1H-pyrrolo[2,3-b]pyridin-5-yl)oxy)-4-(4-((4′-chloro-5,5-dimethyl-3,4,5,6-tetra-hydro-[1,1′-biphenyl]-2-yl)methyl)piperazin-1-yl)-N-((3-((4-(methylsulfonyl)piperazin-1-yl)methyl)-5-nitro-3,4-dihdyro-2H-ben-zo[b][1,4]oxazin-7-yl)sulfonyl)benzamide]	8	22
CC1(C)CCC(CN2CCN(c3ccc(C(=O)NS(=O)(=O)c4cc5c(c([N+](=O)[O-])c4)N[C@@H](CN4CCN(S(C)(=O)=O)CC4)CO5)c(Oc4cnc5[nH]ccc5c4)c3)CC2)=C(c2ccc(Cl)cc2)C1 [Example 2-95, (S)-2-((1H-pyrrolo[2,3-b]pyridin-5-yl)oxy)-4-(4-((4′-chloro-5,5-dimethyl-3,4,5,6-tetra-hydro-[1,1′-biphenyl]-2-yl)methyl)piperazin-1-yl)-N-((3-((4-(methylsulfonyl)piperazin-1-yl)methyl)-5-nitro-3,4-dihydro-2H-ben-zo[b][1,4]oxazin-7-yl)sulfonyl)benzamide]	45	19
C[C@@H]1CNc2c(cc(S(=O)(=O)NC(=O)c3ccc(N4CCN(CC5=C(c6ccc(Cl)cc6)CC(C)(C)CC5)CC4)cc3Oc3cnc4[nH]ccc4c3)cc2[N+](=O)[O-])O1 [Example 2-100, (R)-2-((1H-pyrrolo[2,3-b]pyridin-5-yl)oxy)-4-(4-((4′-chloro-5,5-dimethyl-3,4,5,6-tetra-hydro[1,1′-biphenyl]-2-yl)methyl)piperazin-1-yl)-N-((2-methyl-5-nitro-3,4-dihydro-2H-benzo[b][1,4]oxazin-7-yl)sulfonyl)benza-mide]	22	31
CN(C)C(=O)[C@H]1COc2cc(S(=O)(=O)NC(=O)c3ccc(N4CCN(CC5=C(c6ccc(Cl)cc6)CC(C)(C)CC5)CC4)cc3Oc3cnc4[nH]ccc4c3)cc([N+](=O)[O-])c2N1 [Example 2-102, (R)-7-(N-(2-((1H-pyrrolo[2,3-b]pyridin-5-yl)oxy)-4-(4-((4′-chloro-5,5-dimethyl-3,4,5,6-tetrahydro-[1,1′-biphenyl]-2-yl)methyl)pi-perazin-1-yl)benzoyl)sulfamoyl)-N,N-dimethyl-5-nitro-3,4-dihydro-2H-benzo[b] [1,4]oxazine-3-carboxamide]	10	95
CC1(C)CCC(CN2CCN(c3ccc(C(=O)NS(=O)(=O)c4cc5c(c([N+](=O)[O-])c4)N[C@@H](C(=O)N4CCOCC4)CO5)c(Oc4cnc5[nH]ccc5c4)c3)CC2)=C(c2ccc(Cl)cc2)C1 [Example 2-103]	16	490
CN1CCN(C(=O)[C@H]2COc3cc(S(=O)(=O)NC(=O)c4ccc(N5CCN(CC6=C(c7ccc(Cl)cc7)CC(C)(C)CC6)CC5)cc4Oc4cnc5[nH]ccc5c4)cc([N+](=O)[O-])c3N2)CC1 [Example 2-104, (R)-2-((1H-pyrrolo[2,3-b]pyridin-5-yl)oxy)-4-(4-((4′-chloro-5,5-dimethyl-3,4,5,6-tetra-hydro[1,1′-biphenyl]-2-yl)methyl)piperazin-1-yl)-N-((3-(4-methylpiperazine-1-carbo-nyl)-5-nitro-3,4-dihydro-2H-benzo[b][1,4]oxazin-7-yl)sulfonyl)benzamide]	7	173
